Assay results from patent US20250041298A1, “CDK4 INHIBITOR FOR THE TREATMENT OF CANCER” (Pfizer Inc., priority 2021, published 2025).
Values joined by “and” are separate entries in the source; they are usually repeats but may differ in a detail not shown here. Equal values may be shown once.

Legend:
[1] = Phase 1/1b clinical trial: safety (DLTs, treatment-emergent adverse events); assay type: in vivo, human
Procedure: As used herein, “dose limiting toxicity” (DLT) refers to the dosage of PF-07220060 that is contraindicative of a further increase in dosage.
An ongoing open-label, nonrandomized, dose-finding Phase 1/1b Study investigating the safety, tolerability, PK, and PD of PF-07220060 administered as a single agent and when administered in combination with endocrine therapy.
Adverse events of the patients dosed with PF-07220060 in the Phase 1/1b clinical trial were evaluated using the National Cancer Institute Common Terminology Criteria for Adverse Events (NCI CTCAE) version 4.03.

[2] = tested on: advanced or metastatic solid tumors; test: Phase 1/1b clinical trial: tumor response (best overall response, RECIST 1.1); assay type: in vivo, human
Text: The present therapy may result in a complete response (CR), partial response (PR), progressive disease (PD), or stable disease (SD) in patients. Bioimaging can be used to evaluate the level of response to the therapy. Cytology and histology may also be used as needed (e.g., to locate any residual lesions). In some embodiments, the various levels of response can be evaluated in accordance with Table 1 below.
• For Part 1: participant must have evaluable lesion (including skin or bone lesion only). • For Part 2B and Part 2C: participants must have measurable disease as defined per RECIST (Response Evaluation Criteria in Solid Tumors) version 1.1 (Eisenhauer et al., European Journal of Cancer, 2009, 45 (2): 228-47). Tumor lesions previously irradiated or subjected to locoregional therapy will only be deemed measurable if progression at the treated site after completion of therapy is clearly documented.

[3] = tested on: HR+, HER2- T47D breast cancer spheroids; test: Multicellular tumor spheroid growth inhibition (SGI), T47D; assay type: cell-based, human
Procedure: The purpose of this example was to evaluate the combination effect of PF-07220060 and endocrine therapy in multicellular tumor spheroid growth inhibition (SGI). To model the characteristics and cellular behavior of human tumors, the activity of PF-07220060 was evaluated in three dimensional MCTS models of HR+ breast cancer and AR+ prostate cancer following PF-07220060 treatment as a single agent and in combination with fulvestrant • 1) in HR+, HER2-T47D breast cancer spheroids. • 2) in HR+, HER2+BT474 breast cancer spheroids, • 3) in BT474 spheroids, and • 4) in AR+ prostate carcinoma cell line (LNCaP) prostate cancer spheroids. Spheroids were treated with increasing concentrations of 100, 300, or 1000 nM PF-07220060 and compared to palbociclib at the clinically relevant concentration of 30 nM. Single agent PF-07220060 inhibited spheroid growth in a dose-dependent manner, with highest efficacy (86% SGI over the duration of treatment with 1000 nM) shown in the T47D BC spheroid model (Table 1). Combining 100 nM PF-07220060 with 1 nM fulvestrant in T47D cells increased SGI to 96% compared to either single agent alone (57 to 67% SGI with 100 nM PF-07220060 or 79% SGI with fulvestrant) (Table 1). BT474 spheroids were relatively less sensitive to PF-07220060 resulting in 52% SGI at 1000 nM.

[4] = 66 participants dosed in Part 1A, 1B, 1C and 1D
[5] = Part 1D, single agent 400 mg BID food cohort
[6] = Part 1D, single agent 400 mg BID food cohort, 6 participants
[7] = across all dose levels, by label
[8] = across all dose levels, Part 1A
[9] = any grade, all dose levels, Part 1A, 1B, 1C, by label
[10] = any grade, all dose levels, Part 1A, 1C, by label
[11] = overall, 66 participants dosed in Part 1
[12] = Part 1D food effect cohort (n = 6)
[13] = Total, all cohorts (27 patients)
[14] = Total, all cohorts (35 patients)
[15] = confirmed best overall response, Part 1D food effect cohort (n = 6)
[16] = confirmed best overall response, Total Part 1A (single agent), 1B, 1C, 1B + 1C, by label
[17] = confirmed best overall response, Total, all cohorts (n = 70)

CC(C)n1c(C(C)(C)O)nc2c(F)cc(-c3nc(N[C@@H]4CCOC[C@H]4O)ncc3Cl)cc21 [PF-07220060, 1,5-anhydro-3-({5-chloro-4-[4-fluoro-2-(2-hydroxypropan-2-yl)-1-(propan-2-yl)-1H-benzimidazol-6-yl]pyrimidin-2-yl}amino)-2,3-dideoxy-D-threo-pentitol]
participants with any treatment-related TEAE, % ([1]; 66 participants dosed in Part 1): 81.8%
number of all-causality TEAEs [1, 4]: 375
participants with all-causality TEAEs, % [1, 4]: 89.4%
diarrhoea, Grade 3 treatment-related TEAE ([1]; Part 1A): 5.9%
thrombocytopenia, Grade 3 treatment-related TEAE ([1]; Part 1A): 5.9%
participants with treatment-related TEAE, % ([1]; Part 1A (single agent, 34), 1B (13), 1C (13), by label): 79.4%
participants with Grade 5 all-causality TEAE (respiratory failure; unrelated to study drug) ([1]; Part 1A, 400 mg BID group): One
Grade 4 / Grade 5 all-causality TEAEs ([1]; Part 1A, 1B, 1C, by label): No Grade 4 TEAEs were reported
Grade 4 / Grade 5 treatment-related TEAEs ([1]; Part 1A, 1B, 1C, by label): no Grade 4 or Grade 5 treatment-related TEAEs reported
anaemia, Grade 3 treatment-related TEAE ([1]; Part 1A, 1B, 1C, by label): 5.9%
leukopenia, Grade 3 treatment-related TEAE ([1]; Part 1A, 1B, 1C, by label): 5.9%
neutropenia, Grade 3 treatment-related TEAE ([1]; Part 1A, 1B, 1C, by label): 14.7%
participants with Grade 3 treatment-related TEAEs, % ([1]; Part 1A, 1B, 1C, by label): 26.5%
Grade 3, 4 or 5 treatment-related TEAEs [1, 5]: No Grade 3, 4 nor 5 treatment-related TEAEs were reported
Grade 3 or 5 TEAEs [1, 5]: No Grade 3 or 5 TEAEs were reported
diarrhoea, all-causality TEAE [1, 5]: 50.0%
diarrhoea, treatment-related TEAE [1, 5]: 50.0%
leukopenia, all-causality TEAE [1, 5]: 50.0%
leukopenia, treatment-related TEAE [1, 5]: 50.0%
neutropenia, all-causality TEAE [1, 5]: 50.0%
neutropenia, treatment-related TEAE [1, 5]: 50.0%
participants with Grade 4 all-causality TEAE (respiratory failure) [1, 5]: One
participants with TEAEs, % [1, 6]: 66.7%
participants with treatment-related TEAEs, % [1, 6]: 66.7%
anaemia, Grade 3 or higher (1A) / Grade 3 (1B, 1C) all-causality TEAE [1, 7]: 5.9%
leukopenia, Grade 3 or higher (1A) / Grade 3 (1B, 1C) all-causality TEAE [1, 7]: 5.9%
neutropenia, Grade 3 or higher (1A) / Grade 3 (1B, 1C) all-causality TEAE [1, 7]: 14.7%
number of Grade 3 or higher (Part 1A) / Grade 3 (Part 1C) all-causality TEAEs [1, 7]: 15
COVID-19, Grade 3 or higher all-causality TEAE [1, 8]: 5.9%
aspartate aminotransferase increased, Grade 3 or higher all-causality TEAE [1, 8]: 5.9%
diarrhoea, Grade 3 or higher all-causality TEAE [1, 8]: 5.9%
syncope, Grade 3 or higher all-causality TEAE [1, 8]: 5.9%
thrombocytopenia, Grade 3 or higher all-causality TEAE [1, 8]: 5.9%
participants with all-causality TEAEs, % ([1]; all dose levels, Part 1A (single agent, 34), 1B (13), 1C (13), by label): 94.1%
aspartate aminotransferase increased, all-causality TEAE ([1]; any grade, all dose levels, Part 1A): 20.6%
anaemia, all-causality TEAE [1, 9]: 35.3%
diarrhoea, all-causality TEAE [1, 9]: 35.3%
diarrhoea, treatment-related TEAE [1, 9]: 23.5%
fatigue, treatment-related TEAE [1, 9]: 11.8%
leukopenia, all-causality TEAE [1, 9]: 35.3%
nausea, all-causality TEAE [1, 9]: 29.4%
nausea, treatment-related TEAE [1, 9]: 26.5%
neutropenia, all-causality TEAE [1, 9]: 41.2%
neutropenia, treatment-related TEAE [1, 9]: 41.2%
vomiting, all-causality TEAE [1, 9]: 20.6%
anaemia, treatment-related TEAE [1, 10]: 29.4%
leukopenia, treatment-related TEAE [1, 10]: 29.4%
thrombocytopenia, treatment-related TEAE [1, 10]: 20.6%
vomiting, treatment-related TEAE [1, 10]: 14.7%
participants who experienced DLTs, % ([1]; of the 55 evaluable participants, all cohorts, as of Sep. 2, 2022): 7.3%
anemia, treatment-related TEAE [1, 11]: 21.2%
diarrhea, treatment-related TEAE [1, 11]: 33.3%
leukopenia, treatment-related TEAE [1, 11]: 30.3%
nausea, treatment-related TEAE [1, 11]: 27.3%
neutropenia, treatment-related TEAE [1, 11]: 40.9%
participants with DLT of Grade 3 neutropenia ([1]; single agent 200 mg BID cohort): One
participants with DLT of Grade 3 thrombocytopenia ([1]; single agent 500 mg BID cohort): Two
Objective Response (CR + PR) for Patients without Breast Cancer, % ([2]; Part 1D food effect cohort (5 patients)): (20.0) %
Disease Control (CR + PR + SD + Non-CR/Non-PD), % [2, 12]: (50.0) %
Objective Response (CR + PR), % [2, 12]: (16.7) %
Clinical Benefit Response, % ([2]; Patients with Breast Cancer (with Measurable Disease at Baseline), Total Part 1A (single agent), 1B, 1C, 1B + 1C, by label): (40.0) %
Clinical Benefit Response, % ([2]; Patients with Breast Cancer (with Measurable Disease at Baseline), Total, all cohorts (27 patients)): (48.1) %
Clinical Benefit Response, % ([2]; Patients with Breast Cancer, Total Part 1A (single agent), 1B, 1C, 1B + 1C, by label): (25.0) %
Clinical Benefit Response, % ([2]; Patients with Breast Cancer, Total, all cohorts (35 patients)): (40.0) %
Objective Response (CR + PR) for Patients with Breast Cancer (with Measurable Disease at Baseline), % [2, 13]: (22.2) %
Objective Response (CR + PR) for Patients with prior CDK4/6 inhibitor (with Measurable Disease at Baseline), % [2, 13]: (22.2) %
Objective Response (CR + PR) for Patients with Breast Cancer, % [2, 14]: (17.1) %
Objective Response (CR + PR) for Patients without Breast Cancer, % [2, 14]: (2.9) %
Disease Control (CR + PR + SD + Non-CR/Non-PD), % ([2]; Total, all cohorts (n = 70)): (65.7) %
Objective Response (CR + PR), % ([2]; Total, all cohorts (n = 70)): (10.0) %
Disease Control (CR + PR + SD + Non-CR/Non-PD), % ([2]; Total, all cohorts (n = 70), listed as PF-06873600): 65.7%
Clinical Benefit Response, % ([2]; all evaluable patients, Part 1D food effect cohort (n = 6)): (33.3) %
Clinical Benefit Response, % ([2]; all evaluable patients, Total Part 1A (single agent), 1B, 1C, 1B + 1C, by label): (26.3) %
Clinical Benefit Response, % ([2]; all evaluable patients, Total, all cohorts (n = 70)): (34.3) %
Non-CR/Non-PD, % [2, 15]: (16.7) %
Not evaluable (NE), % [2, 15]: (16.7) %
Partial response (PR), % [2, 15]: (16.7) %
Progressive disease (PD), % [2, 15]: (33.3) %
Stable disease (SD), % [2, 15]: (16.7) %
Non-CR/Non-PD, % [2, 16]: (10.5) %
Not evaluable (NE), % [2, 16]: (23.7) %
Progressive disease (PD), % [2, 16]: (15.8) %
Stable disease (SD), % [2, 16]: (47.4) %
Complete response (CR), % [2, 17]: (1.4) %
Non-CR/Non-PD, % [2, 17]: (11.4) %
Not evaluable (NE), % [2, 17]: (14.3) %
Partial response (PR), % [2, 17]: (8.6) %
Progressive disease (PD), % [2, 17]: (18.6) %
Stable disease (SD), % [2, 17]: (44.3) %
SGI ([3]; 100 nM single agent): 57% and 67%
SGI ([3]; 300 nM single agent): 74%
SGI ([3]; 1000 nM single agent): 86%
